From ChEMBL document CHEMBL5303304, “EUbOPEN Chemogenomics Library - IncuCyte” (2023)
Where “and” joins values, the source holds several entries; their conditions need not be identical. Equal values may be shown once.

Tests used:
Assay type in all cases: toxicity, cell-based
HEK-293T = test: Incucyte cell viability with HEK293T; details: human, 10 µM, compound concentration 10 uM
Fibroblast = test: Incucyte cell viability with human fibroblast; details: 10 µM, compound concentration 10 uM
U2OS = test: Incucyte cell viability with U2OS; details: human, 10 µM, compound concentration 10 uM
Also: unitless GR value; below 1 slowed growth and below 0 cell loss.

Row | Structure (SMILES) | Growth Rate (HEK-293T; 0 h, replicate number 2) | Growth Rate (HEK-293T; 6 h, replicate number 2) | Growth Rate (HEK-293T; 12 h, replicate number 2) | Growth Rate (Fibroblast; 6 h, replicate number 2) | Growth Rate (Fibroblast; 12 h, replicate number 2) | Growth Rate (U2OS; 12 h, replicate number 1) | Growth Rate (U2OS; 12 h, replicate number 2) | Growth Rate (U2OS; 18 h, replicate number 1) | Growth Rate (U2OS; 18 h, replicate number 2) | Growth Rate (U2OS; 24 h, replicate number 1) | Growth Rate (U2OS; 24 h, replicate number 2) | Growth Rate (HEK-293T; 6 h, replicate number 1) | Growth Rate (HEK-293T; 12 h, replicate number 1) | Growth Rate (HEK-293T; 18 h, replicate number 1) | Growth Rate (HEK-293T; 18 h, replicate number 2) | Growth Rate (HEK-293T; 24 h, replicate number 1) | Growth Rate (HEK-293T; 24 h, replicate number 2) | Growth Rate (Fibroblast; 18 h, replicate number 1) | Growth Rate (Fibroblast; 24 h, replicate number 1) | Growth Rate (Fibroblast; 24 h, replicate number 2) | also measured
1 | CCNC(=O)c1ccc2c(c1)NC(=O)/C2=C(\Nc1ccc(CN(C)C)cc1)c1ccccc1 | -1 | 0.16 | 0.83 | 0.09 | 0.8 | 0.63 and 0.95 | 0.85 | 0.75 and 0.9 | 0.8 | 0.84 and 0.87 | 0.83 | – | – | – | – | – | – | – | – | – | Growth Rate (Fibroblast; 0 h, replicate number 2): 0.87; Growth Rate (U2OS; 0 h, replicate number 2): 0.96; Growth Rate (U2OS; 6 h, replicate number 1): 0.67 and 0.82; Growth Rate (U2OS; 6 h, replicate number 2): 1
2 | Oc1c(CN2CCCC2)cc(COCc2ccccc2)c2cccnc12 | -0.99 | 0.05 | -0.05 | – | – | 0.55 | 0.58 | 0.93 | 0.56 | 0.79 | 0.54 | 0.34 | -0.04 | -0.09 | -0.21 | -0.18 | -0.25 | 0.96 | 0.83 | 0.6 | Growth Rate (Fibroblast; 0 h, replicate number 1): 0.87; Growth Rate (U2OS; 0 h, replicate number 1): 0.25; Growth Rate (U2OS; 6 h, replicate number 1): 0.93; Growth Rate (U2OS; 6 h, replicate number 2): 0.91
3 | CN1CCCN(C(=O)c2cccc(-c3ccc(/C=C4/C(=O)Nc5ccc(Cl)cc54)o3)c2)CC1 | -1 | -0.67 | -0.63 | -0.94 | -0.82 | -0.7 | -0.54 | -0.53 | -0.44 | -0.48 | -0.42 | -0.69 | -0.6 | -0.51 | -0.49 | -0.45 | -0.47 | -0.74 | -0.67 | -0.63 | Growth Rate (Fibroblast; 6 h, replicate number 1): -0.99; Growth Rate (Fibroblast; 12 h, replicate number 1): -0.83; Growth Rate (Fibroblast; 18 h, replicate number 2): -0.72; Growth Rate (U2OS; 0 h, replicate number 2): -0.78; Growth Rate (U2OS; 6 h, replicate number 1): -0.67; Growth Rate (U2OS; 6 h, replicate number 2): -0.6
4 | N[C@@H]1CCCN(c2c(/C=C3\SC(=O)NC3=O)cccc2-c2ccccc2)C1 | -0.99 | 0.84 | 0.79 | 0.19 | 0.34 | 0.97 | – | – | – | – | – | – | – | 0.8 | 0.84 | 0.92 | 0.97 | 0.83 | 1 | 0.53 | Growth Rate (Fibroblast; 12 h, replicate number 1): 0.71; Growth Rate (Fibroblast; 18 h, replicate number 2): 0.55; Growth Rate (U2OS; 0 h, replicate number 1): -0.41
5 | Cn1cc(NC(=O)c2ccc3nc4n(c3c2)CCCNC4=O)nc1C(=O)NC1CCCC1 | 0.71 | 0.99 | 0.88 | 0.57 | 0.76 | 0.82 | 0.97 | 0.95 | 0.99 | 0.91 | – | – | 0.69 | 0.64 | 0.85 | 0.81 | 0.9 | 0.91 | 0.79 | 0.92 | Growth Rate (Fibroblast; 0 h, replicate number 1): 0.88; Growth Rate (Fibroblast; 0 h, replicate number 2): 0.62; Growth Rate (Fibroblast; 12 h, replicate number 1): 0.67; Growth Rate (Fibroblast; 18 h, replicate number 2): 0.78; Growth Rate (U2OS; 0 h, replicate number 1): 0.36
6 | Nc1ncnc2c1ccn2[C@@H]1O[C@H]([C@@H](O)c2ccccc2)[C@@H](O)[C@H]1O | -0.97 | – | – | 0.31 | 0.57 | – | 1 | 0.86 | 0.91 | 0.8 | 0.95 | 0.8 | – | – | – | – | – | 0.97 | 0.81 | – | Growth Rate (Fibroblast; 6 h, replicate number 1): 0.32; Growth Rate (Fibroblast; 12 h, replicate number 1): 0.69
7 | CN(C)[C@H]1CCc2nc(NC(=O)c3cccc(Cn4cc(-c5ccc(C#N)cc5)cn4)c3)sc2C1.O=C(O)C(F)(F)F | -0.96 | 0.68 | 0.74 | – | – | – | – | – | 0.89 | – | 0.75 | 0.98 | 0.52 | 0.59 | 0.68 | 0.51 | 0.62 | – | – | 0.57 | Growth Rate (Fibroblast; 0 h, replicate number 1): -0.59; Growth Rate (Fibroblast; 0 h, replicate number 2): -0.64
8 | CN[C@@H](C)C(=O)N[C@H](C(=O)N1CCC[C@H]1C(=O)N[C@@H]1CCCc2ccccc21)C1CCCCC1.Cl | -0.36 | 0.63 | 0.9 | – | 0.89 | 0.89 | – | – | – | – | – | – | 0.81 | – | 0.87 | – | 0.88 | 0.75 | 0.72 | – | Growth Rate (Fibroblast; 12 h, replicate number 1): 0.76; Growth Rate (U2OS; 0 h, replicate number 1): 0.24; Growth Rate (U2OS; 6 h, replicate number 1): 0.97
9 | CC#CC(=O)N1CCN(c2nc(-c3ccc(Oc4ccccc4)cc3)c(C(N)=O)s2)CC1 | -0.85 | 0.66 | 0.74 | 0.18 | 0.22 | 0.55 | 0.92 | 0.66 | 0.94 | 0.69 | 0.94 | 0.41 | 0.43 | 0.61 | 0.6 | 0.66 | 0.64 | 0.52 | 0.32 | 0.44 | Growth Rate (Fibroblast; 0 h, replicate number 1): 0.51; Growth Rate (Fibroblast; 0 h, replicate number 2): 0.75; Growth Rate (Fibroblast; 6 h, replicate number 1): 0.87; Growth Rate (Fibroblast; 12 h, replicate number 1): 0.5; Growth Rate (Fibroblast; 18 h, replicate number 2): 0.4; Growth Rate (U2OS; 0 h, replicate number 1): 0.94; Growth Rate (U2OS; 6 h, replicate number 1): 0.5; Growth Rate (U2OS; 6 h, replicate number 2): 0.82
10 | COC1(C#Cc2ccc(Cl)c(-c3ncc4c(n3)-c3sc(NC(C)=O)nc3CC4)c2)CCN(C)CC1 | -1 | -0.37 | -0.19 | -0.27 | -0.12 | 0.91 | 0.66 | 0.64 | – | 0.78 | 0.62 | -0.41 | -0.29 | -0.17 | -0.1 | -0.05 | 0.05 | -0.03 | -0.11 | -0.15 | Growth Rate (Fibroblast; 6 h, replicate number 1): 0.02; Growth Rate (Fibroblast; 12 h, replicate number 1): 0.03; Growth Rate (Fibroblast; 18 h, replicate number 2): -0.14; Growth Rate (U2OS; 0 h, replicate number 1): 0.64; Growth Rate (U2OS; 0 h, replicate number 2): 0.98; Growth Rate (U2OS; 6 h, replicate number 1): 0.79; Growth Rate (U2OS; 6 h, replicate number 2): 0.62
11 | Cc1cc(-c2cc3ncccc3c(OC[C@H]3CCCNC3)n2)ccc1N(C)C.O=C(O)C(F)(F)F | -1 | -0.53 | -0.44 | – | – | 0.77 | 0.26 | 0.28 | 0.19 | 0.47 | 0.16 | -0.57 | -0.47 | -0.34 | -0.28 | -0.25 | -0.18 | – | 0.79 | 0.85 | Growth Rate (Fibroblast; 0 h, replicate number 1): -0.49; Growth Rate (Fibroblast; 0 h, replicate number 2): -0.85; Growth Rate (U2OS; 6 h, replicate number 2): 0.47
12 | COc1cc2ncnc(Nc3ccc(F)c(Cl)c3)c2cc1OCCN(C)C[C@H](C)O | -0.98 | 0.69 | 0.49 | 0.44 | -0.12 | 0.68 | 0.35 | 0.77 | 0.44 | 0.92 | 0.42 | 0.36 | 0.61 | 0.65 | 0.69 | 0.65 | 0.73 | -0.23 | -0.21 | 0 | Growth Rate (Fibroblast; 0 h, replicate number 2): 0; Growth Rate (Fibroblast; 6 h, replicate number 1): -0.42; Growth Rate (Fibroblast; 12 h, replicate number 1): -0.2; Growth Rate (Fibroblast; 18 h, replicate number 2): -0.05; Growth Rate (U2OS; 0 h, replicate number 2): 0.24; Growth Rate (U2OS; 6 h, replicate number 1): 0.7; Growth Rate (U2OS; 6 h, replicate number 2): 0.36
13 | CN1CCN(c2ccc(/C=C(\C#N)c3ccccc3Br)cc2)CC1.Cl.Cl | -0.96 | 0.54 | 0.47 | 0.09 | -0.18 | – | – | – | – | – | – | 0 | 0.24 | 0.38 | 0.48 | 0.46 | 0.71 | 0.18 | 0.05 | -0.21 | Growth Rate (Fibroblast; 0 h, replicate number 1): 0.9; Growth Rate (Fibroblast; 0 h, replicate number 2): 0.65; Growth Rate (Fibroblast; 6 h, replicate number 1): 0.32; Growth Rate (Fibroblast; 12 h, replicate number 1): 0.42; Growth Rate (Fibroblast; 18 h, replicate number 2): -0.18; Growth Rate (U2OS; 6 h, replicate number 1): 0.94
